# Test results: patent publication US6087118A, “Method for diagnosing alzheimer's disease” (priority 1999, dated 2000)
# Entries after “also recorded” stand apart in the source; their conditions may differ.
# Legend:
# [1] = system: K+ channels in human platelets; assay: Thrombin-stimulated 86Rb+ efflux from perfused platelets; type: cell-based; conditions: for Effect on thrombin-stimulated 86Rb+ efflux, pooled data (FIGS. 1a, 2a) / Inhibition of thrombin-stimulated 86Rb+ efflux in 8 of 11 control subjects / Inhibition of thrombin-stimulated 86Rb+ efflux in the other three control subjects: control subjects; for Effect on thrombin-stimulated 86Rb+ efflux, pooled data (FIGS. 1a, 2a): n=11, P<0.0001; for Effect on thrombin-stimulated 86Rb+ efflux, pooled data (FIGS. 1a, 2a) / Effect on thrombin-stimulated 86Rb+ efflux, pooled data (FIGS. 1b, 2b) / Inhibition in controls (%) of thrombin-stimulated 86Rb+ efflux / Inhibition in Alzheimer's disease (%) of thrombin-stimulated 86Rb+ efflux: thrombin 0.3 IU/ml, apamin 100 nM, charybdotoxin 300 nM, α-dendrotoxin 200 nM; for Effect on thrombin-stimulated 86Rb+ efflux, pooled data (FIGS. 1b, 2b): patients with Alzheimer's disease, n=12; for Inhibition in controls (%) of thrombin-stimulated 86Rb+ efflux: platelets of age- and sex-matched controls; for Inhibition in controls (%) of thrombin-stimulated 86Rb+ efflux / Inhibition in Alzheimer's disease (%) of thrombin-stimulated 86Rb+ efflux: median (interquartile range); for Inhibition in Alzheimer's disease (%) of thrombin-stimulated 86Rb+ efflux: platelets of patients with AD; for Inhibition of thrombin-stimulated 86Rb+ efflux in 8 of 11 control subjects: the 8 of 11 that responded; for Inhibition of thrombin-stimulated 86Rb+ efflux in the other three control subjects: the other 3 of 11 (minimal effects); for Inhibition of thrombin-stimulated 86Rb+ efflux in 9 of 12 patients with AD: 9 of 12 (minimal effects); for Inhibition of thrombin-stimulated 86Rb+ efflux in the other three patients with AD: the other 3 of 12
# Description: (§1) Platelet perfusion^17. Blood was drawn by venepuncture and anticoagulated with acid-citratedextrose (ACD). Platelets were prepared by centrifugation within an hour of venesection and incubated with ^86 Rb^+ for 2 h. The platelet suspension (2.5×10^7 platelets per ml) was then injected into perfusion chambers, where the cells settled and became immobilized on inert filters (Millipore). The platelets were then continuously perfused with Krebs solution, to allow them to stabilize for 20 min before the start of each experiment. The perfusion buffer was then changed for 5 min to Krebs solution containing thrombin (0.3 IU/ml) or ionomycin (1 μM), after which the perfusion was switched to the original solution and continued for another 20 min. From 0 to 10 min after the addition of thrombin or ionomycin the perfusate was collected at 1-min intervals and thereafter at 2-min intervals. The solutions used for perfusion were bubbled with 95% O2 and 5% CO2 throughout the experiment (pH 7.4). At the end of the experiment the polycarbonate filters were retrieved and placed in scintillation vials, to which 3.5 ml of Aquasafe 500 scintillation fluid was added. The radioactivity in the perfusates and filters was determined by liquid scintillation counting in a Beckmann LS 6000 SE counter and the loss of radioactivity from the cells was calculated. The amount of ^86 Rb^+ (pmol) in each fraction of perfusate collected was determined using the specific activity of the isotope. The radioactivity was measured in each fraction and the results were plotted as the cumulative efflux of ^86 Rb^+ against time.
# (§2) Buffers and drucas. ACD contained citric acid (15 g), trisodium citrate (25 g), and dextrose (20 g) in 1 l of distilled water. Krebs buffer contained (mmol/l): NaCl (119); KCl (4.6); CaCl2 (1.5); NaH2 PO4 (1.2); MgCl2 (1.2); NaHCO3 (15); and glucose (11). Apamin, charybdotoxin, α-dendrotoxin, iberiotoxin, ionomycin, and human thrombin were purchased from Sigma Chemical Company, Poole, Dorset. ^86 RbCl was purchased from Amersham International plc (Amersham, Bucks).
# (§3) Thrombin and ionomycin. Solutions of thrombin were prepared freshly in distilled water for each experiment and further diluted to a concentration of 0.3 IU/ml in Krebs solution. Stock solutions of ionomycin (10 mM in dimethylsulphoxide) were prepared and stored in aliquots at 4° C. On the day of the experiment ionomycin was further diluted in Krebs solution to a concentration of 1 μM.
# (§4) Apamin, charybdotoxin, iberiotoxin, and α-dendrotoxin. Apamin, charybdotoxin, iberiotoxin, and α-dendrotoxin were […]. Apamin, (100 nM), charybdotoxin (300 nM), iberiotoxin (300 nM), and α-dendrotoxin (200 nM) were reconstituted in distilled water and stored in aliquots at -20° C. On the day of the experiment the toxins were further diluted in Krebs solution. Apamin was pre-incubated with the platelets (added at time -20 min) and charybdotoxin, iberiotoxin, and α-dendrotoxin were added with thrombin (at 0 min) for a period of 5 min.
# (§5) Data Dresentation and analysis. The results in FIGS. 1-3 are shown as cumulative effluxes of ^86 Rb^+ from 0 to 14 min. The data are shown as means±SEMs (n=number of experiments with platelets obtained from different volunteers). The efflux data were analyzed using analysis of variance with repeated measures.
# (§6) K^+ channel fluxes. Platelets were prepared and their K^+ channel fluxes studied as described by DeSilva, H. A. et al^17, by loading fresh platelets with ^86 Rb^+ (used as a radioactive analogue of K^+)^18,19 and stimulating ^86 Rb^+ efflux with thrombin and ionomycin.
# [2] = system: K+ channels in human platelets; assay: Ionomycin-stimulated 86Rb+ efflux from perfused platelets; type: cell-based; conditions: for Inhibition in controls (%) of ionomycin-stimulated 86Rb+ efflux: platelets of age- and sex-matched controls; for Inhibition in controls (%) of ionomycin-stimulated 86Rb+ efflux / Inhibition in Alzheimer's disease (%) of ionomycin-stimulated 86Rb+ efflux / Effect on ionomycin-stimulated 86Rb+ efflux, pooled data (FIG. 3a) / Effect on ionomycin-stimulated 86Rb+ efflux, pooled data (FIG. 3b): ionomycin 1 μM, apamin 100 nM, charybdotoxin 300 nM; for Inhibition in controls (%) of ionomycin-stimulated 86Rb+ efflux / Inhibition in Alzheimer's disease (%) of ionomycin-stimulated 86Rb+ efflux: median (interquartile range); for Inhibition in Alzheimer's disease (%) of ionomycin-stimulated 86Rb+ efflux: platelets of patients with AD; for Effect on ionomycin-stimulated 86Rb+ efflux, pooled data (FIG. 3a) / Inhibition of ionomycin-stimulated 86Rb+ efflux in 9 of 11 control subjects / Inhibition of ionomycin-stimulated 86Rb+ efflux in two control subjects: control subjects; for Effect on ionomycin-stimulated 86Rb+ efflux, pooled data (FIG. 3a) / Effect on ionomycin-stimulated 86Rb+ efflux, pooled data (FIG. 3b): n=11; for Effect on ionomycin-stimulated 86Rb+ efflux, pooled data (FIG. 3a): P<0.0001; for Inhibition of ionomycin-stimulated 86Rb+ efflux in 9 of 11 control subjects: the 9 of 11 that responded; for Inhibition of ionomycin-stimulated 86Rb+ efflux in two control subjects: the other 2 of 11 (minimal effects); for Inhibition of ionomycin-stimulated 86Rb+ efflux in 8 of 11 patients with AD: 8 of 11 (minimal effects); for Effect on ionomycin-stimulated 86Rb+ efflux, pooled data (FIG. 3b): patients with Alzheimer's disease, P=0.883
# Description: as §1, §2, §3, §4, §5, §6
# sodium/potassium pump = assay: Uptake of 86Rb+ by platelets; type: cell-based, human; conditions: unpublished observations of de Silva & Aronson
Compound,"Effect on thrombin-stimulated 86Rb+ efflux, pooled data (FIGS. 1a, 2a) [1]","Effect on thrombin-stimulated 86Rb+ efflux, pooled data (FIGS. 1b, 2b) [1]",Inhibition in controls (%) of thrombin-stimulated 86Rb+ efflux [1],Inhibition in Alzheimer's disease (%) of thrombin-stimulated 86Rb+ efflux [1],Inhibition in controls (%) of ionomycin-stimulated 86Rb+ efflux ([2]; iberiotoxin 300 nM),Inhibition in Alzheimer's disease (%) of ionomycin-stimulated 86Rb+ efflux ([2]; iberiotoxin 300 nM),Inhibition of thrombin-stimulated 86Rb+ efflux in 8 of 11 control subjects [1],Inhibition of thrombin-stimulated 86Rb+ efflux in the other three control subjects [1],Inhibition of thrombin-stimulated 86Rb+ efflux in 9 of 12 patients with AD [1],Inhibition of thrombin-stimulated 86Rb+ efflux in the other three patients with AD [1],"Effect on ionomycin-stimulated 86Rb+ efflux, pooled data (FIG. 3a) [2]",Inhibition of ionomycin-stimulated 86Rb+ efflux in 9 of 11 control subjects [2],Inhibition of ionomycin-stimulated 86Rb+ efflux in two control subjects [2],Inhibition of ionomycin-stimulated 86Rb+ efflux in 8 of 11 patients with AD [2],"Effect on ionomycin-stimulated 86Rb+ efflux, pooled data (FIG. 3b) [2]",further results
α-dendrotoxin,inhibited,inhibited,26 (20-29) %,19 (18-27) %,–,–,–,–,–,–,–,–,–,–,–,–
"iberiotoxin (QFTDVDCSVSKECWSVCKDLFGVDRGKCMGKKCRCYQ; UniProt P24663 1-37, looked up) [purchased from Sigma]",–,–,–,–,2 (0-3) %,0 (0-4) %,–,–,–,–,–,–,–,–,–,"Effect on ionomycin-stimulated effluxes in platelets from any individual ([2]; patients with AD and controls, iberiotoxin 300 nM): no effect"
CC(C)C[C@@H]1NC(=O)[C@H](C)NC(=O)[C@H]([C@@H](C)O)NC(=O)[C@H](CCC(=O)O)NC(=O)[C@@H]2CCCN2C(=O)[C@H](C)NC(=O)[C@H](CCCCN)NC(=O)[C@@H]2CSSC[C@@H](C(=O)N[C@@H](CCC(N)=O)C(=O)N[C@@H](CCC(N)=O)C(=O)N[C@@H](Cc3cnc[nH]3)C(N)=O)NC(=O)[C@H](CCCNC(=N)N)NC(=O)[C@H](CCCNC(=N)N)NC(=O)[C@H](C)NC(=O)[C@H](CSSC[C@H](N)C(=O)N[C@@H](CC(N)=O)C(=O)N2)NC1=O [Apamin],inhibited,no significant effect,26 (20-27) %,0 (0-0) %,30 (20-31) %,1 (0-20) %,at least 18%,less than 10%,less than 10%,at least 16%,inhibited,at least 18%,less than 12%,less than 12%,no significant effect,"Effect on thrombin-stimulated 86Rb+ efflux, pooled data (FIGS. 1a, 2a) ([1]; listed as apamin): significant reductions; Effect on thrombin-stimulated 86Rb+ efflux, pooled data (FIGS. 1b, 2b) ([1]; listed as apamin): neither apamin nor charybdotoxin caused significant reductions; Effect on ionomycin-stimulated 86Rb+ efflux, pooled data (FIG. 3a) ([2]; listed as apamin): significant reductions; Effect on ionomycin-stimulated 86Rb+ efflux, pooled data (FIG. 3b) ([2]; listed as apamin): minimal effects"
charybdotoxin,inhibited; also recorded: significant reductions,no significant effect; also recorded: neither apamin nor charybdotoxin caused significant reductions,22 (18-29) %,0 (0-4) %,28 (20-34) %,4 (1-26) %,≥ 16%,less than 10%,less than 10%,at least 16%,inhibited; also recorded: significant reductions,≥ 22%,less than 12%,less than 12%,no significant effect; also recorded: minimal effects,–
C[C@@H]1O[C@@H](O[C@H]2C[C@@H](O)[C@]3(CO)[C@H]4[C@H](O)C[C@]5(C)[C@@H](C6=CC(=O)OC6)CC[C@]5(O)[C@@H]4CC[C@]3(O)C2)[C@H](O)[C@H](O)[C@H]1O [ouabain],–,–,–,–,–,–,–,–,–,–,–,–,–,–,–,Share of 86Rb+ uptake in platelets inhibitable by ouabain (sodium/potassium pump): over 90%
